{"source": "ChEMBL document CHEMBL1151664", "about": "“Antitumor agents, 75. Synthesis of cytotoxic anthraquinones digiferruginol and morindaparvin-B” (1985)", "system": "KB", "experiment": "Cytotoxicity against human KB cells", "format": "functional", "conditions": "read-out: ED50 (the source's name)", "data": [{"smiles": "O=C1c2ccccc2C(=O)c2c1ccc(CO)c2O", "note": "[DIGIFERRUGINOL]", "values": [{"measurement": "EC50", "value": 0.09, "unit": "µg/mL"}]}]}
